Assay results taken from patent US10562912B2 (C&C Research Laboratories, priority 2013, dated 2020).

Tests used:
Format in all cases: cell-based
[1] = system: MDA-MB-468; experiment: Cell growth inhibition assay, breast cancer cell line MDA-MB-468; conditions: Homo sapiens, MDA-MB-468 breast cancer cell line
Experimental: (§1) The inhibitory effects of the compounds of the present invention against the growth of cancer cells were evaluated as shown below. The cancer cell lines including stomach cancer cell line (AGS), breast cancer cell lines (MDA-MB-231, MDA-MB-468, and BT-549), prostate cancer cell lines (LNCaP and DU-145), colon cancer cell line (HCT116), ovarian cancer cell line (SW626), liver cancer cell line (Hep3B), kidney cancer cell line (ACHN), lung cancer cell line (NCI-H23) and blood cancer cell lines (HEL92.1.7 and U266) were cultured under the protocol provided by each supplier. A medium supplemented with 10 ng/mL of IL-6 was used for LNCaP, a prostate cancer cell line, when treated with a drug. Each type of cells to be used in experiments were sub-cultured in a 96-well plate by counting the exact number of cells using Tali™ Image-based Cytometer (Life Technologies). In a 96-well plate, AGS, HCT116, and DU-145 were employed with 3,000 cells/well; NCI-H23, SW626, Hep3B, ACHN, BT-549, MDA-MB-231, HEL92.1.7, and U266 were employed with 5,000 cells/well; and LNCaP and MDA-MB-468 were employed with 10,000 cells/well. The cells were treated with the compounds listed in Examples which were diluted in various concentrations. Upon completion of the compounds treatment, AGS, HCT116, SW626, DU145, NCI-H23, Hep3B, ACHN, BT-549, LNCaP, HEL92.1.7, and U266 cells were cultured at 37° C. under 5% CO2 for from 72 to 96 hours, and MDA-MB-231 and MDA-MB-468 cells were cultured at 37° C. in air for from 72 to 96 hours. Subsequently, the cells were observed under microscope and drug precipitation and particular findings were investigated and recorded. And then, the 96-well plate was placed at room temperature for 30 minutes, added with 20 μL/well of CellTiter-Glo solution (Cat No. G7573, Promega) and shaken for 10 minutes, followed by being subjected to the measurement using PHERAstar™ microplate reader (BMG LABTECH) according to the supplier's general luminometer protocol. Wells where only culture liquid added without cell plating were used as a negative control, whereas wells where culture liquid containing 0.1% DMSO instead of the compounds listed in Examples were used as a positive control.

[2] = system: DU-145; experiment: Cell growth inhibition assay, prostate cancer cell line DU-145; conditions: Homo sapiens, DU-145 prostate cancer cell line
Outline: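 Viability by CellTiter-Glo luminescence after 72–96 h of compound dosing at 37° C. under 5% CO2; DU-145 and HCT116 seeded at 3,000 cells/well, SW626 at 5,000 cells/well.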

[3] = system: HEL92.1.7; experiment: Cell growth inhibition assay, blood cancer cell line HEL92.1.7; conditions: Homo sapiens, HEL 92.1.7, HEL92.1.7 blood cancer cell line
Outline: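 Cells were seeded at 3,000/well (HCT116, DU-145) or 5,000/well (SW626 and the others) and exposed to serial compound dilutions for 72 to 96 h at 37 °C under 5% CO2. Viability was read as CellTiter-Glo luminescence against 0.1% DMSO and cell-free wells.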

[4] = target: T1, STAT3 (Homo sapiens, UniProt P40763); experiment: STAT3 reporter gene assay (luciferase), LNCaP stable cell line (pSTAT3-TA-luc), IL-6 stimulation
T1 construct: plasmid pSTAT3-TA-luc), which contains a stably operating STAT3 promoter; endogenous in cells
T1 sequence (P40763 whole entry): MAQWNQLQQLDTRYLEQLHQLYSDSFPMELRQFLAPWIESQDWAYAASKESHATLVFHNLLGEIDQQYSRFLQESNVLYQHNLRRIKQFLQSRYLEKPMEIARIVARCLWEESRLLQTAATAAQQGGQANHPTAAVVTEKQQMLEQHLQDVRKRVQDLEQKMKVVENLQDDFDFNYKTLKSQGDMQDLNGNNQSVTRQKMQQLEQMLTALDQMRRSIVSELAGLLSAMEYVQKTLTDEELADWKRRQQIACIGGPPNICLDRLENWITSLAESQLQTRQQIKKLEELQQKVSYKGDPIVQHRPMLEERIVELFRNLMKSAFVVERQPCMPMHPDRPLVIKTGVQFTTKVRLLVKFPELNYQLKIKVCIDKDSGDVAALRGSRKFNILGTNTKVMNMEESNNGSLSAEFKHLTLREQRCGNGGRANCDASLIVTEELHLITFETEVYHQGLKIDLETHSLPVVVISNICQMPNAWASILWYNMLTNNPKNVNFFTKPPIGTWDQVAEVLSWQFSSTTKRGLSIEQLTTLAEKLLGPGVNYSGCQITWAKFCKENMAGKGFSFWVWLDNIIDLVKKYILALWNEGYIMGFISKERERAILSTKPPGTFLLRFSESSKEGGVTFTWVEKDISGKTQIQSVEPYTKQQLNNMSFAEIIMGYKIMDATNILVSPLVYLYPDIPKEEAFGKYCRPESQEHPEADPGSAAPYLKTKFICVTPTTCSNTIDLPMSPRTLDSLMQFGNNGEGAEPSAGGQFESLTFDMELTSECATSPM
Outline: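 LNCaP cells stably carrying pSTAT3-TA-luc, in RPMI1640 with 3% DCC-FBS, were treated with compound and then stimulated with 10 ng/mL IL-6 for 24–48 h at 37 °C. Luciferase activity was measured in lysates. A parallel plate measured viability by CellTiter-Glo, with stimulated 0.1% DMSO wells as the positive control.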

[5] = system: LNCaP; experiment: Cell growth inhibition assay, prostate cancer cell line LNCaP (medium with 10 ng/mL IL-6); conditions: Homo sapiens, medium supplemented with 10 ng/mL of IL-6, 10,000 cells/well
[6] = system: MDA-MB-231; experiment: Cell growth inhibition assay, breast cancer cell line MDA-MB-231; conditions: Homo sapiens; MDA-MB-231 breast cancer cell line, 5,000 cells/well
[7] = system: U266; experiment: Cell growth inhibition assay, blood cancer cell line U266; conditions: Homo sapiens, U-266 blood cancer cell line
Experimental: as §1

[8] = system: BT-549; experiment: Cell growth inhibition assay, breast cancer cell line BT-549; conditions: Homo sapiens, BT-549 breast cancer cell line
Experimental: as §1

[9] = system: Hep3B; experiment: Cell growth inhibition assay, liver cancer cell line Hep3B; conditions: Homo sapiens
Experimental: as §1

`COc1cc(NC(=O)c2cc3cc(NS(C)(=O)=O)ccc3s2)cc(C(C)(C)c2cc(OC)cc(OC(F)(F)F)c2)c1` [Example 34, N-(3-methoxy-5-(2-(3-methoxy-5-(trifluoromethoxy)phenyl)propan-2-yl)phenyl)-5-(methylsulfonamido)benzo[b]thiophene-2-carboxamide] showed an IC50 [1] of under 0.00064 µM, an IC50 [2] of 0.023 µM and an IC50 [3] of 0.2 µM. It also gave an IC50 [4] of 0.051 µM, an IC50 [5] of 0.24 µM and an IC50 [6] of 0.007 µM. The IC50 [7] was 0.29 µM, the IC50 [8] was 3.4 µM and the IC50 [9] was 0.028 µM.

In the case of `CCOc1cc(OC(F)(F)F)cc(C(C)(C)c2cc(Br)cc(NC(=O)c3cc4cc(NS(C)(=O)=O)ccc4s3)c2)c1` [Example 48, N-(3-bromo-5-(2-(3-ethoxy-5-(trifluoromethoxy)phenyl)propan-2-yl)phenyl)-5-(methylsulfonamido)benzo[b]thiophene-2-carboxamide], the IC50 [2] is reported as 0.008 µM, the IC50 [3] is reported as 0.026 µM and the IC50 [4] is reported as 0.007 µM. It also gave an IC50 [5] of 0.077 µM, an IC50 [6] of 0.002 µM and an IC50 [7] of 0.044 µM.

`CC(C)Oc1cc(OC(F)(F)F)cc(C(C)(C)c2cc(Br)cc(NC(=O)c3cc4cc(NS(C)(=O)=O)ccc4s3)c2)c1` [Example 49, N-(3-bromo-5-(2-(3-isopropoxy-5-(trifluoromethoxy)phenyl)propan-2-yl)phenyl)-5-(methylsulfonamido)benzo[b]thiophene-2-carboxamide] gave an IC50 [2] of 0.007 µM, an IC50 [3] of 0.023 µM and an IC50 [4] of 0.007 µM. The IC50 [5] was 0.049 µM, the IC50 [6] was 0.001 µM and the IC50 [7] was 0.014 µM.

Molecule `CC(C)(c1cccc(CN2CCOCC2)c1)c1cc(Br)cc(NC(=O)c2cc3cc(NS(C)(=O)=O)ccc3s2)c1` [Example 50, N-(3-bromo-5-(2-(3-(morpholinomethyl)phenyl)propan-2-yl)phenyl)-5-(methylsulfonamido)benzo[b]thiophene-2-carboxamide] has an IC50 [2] of 0.36 µM, an IC50 [3] of 0.83 µM and an IC50 [4] of 0.15 µM. It also gave an IC50 [5] of 0.76 µM, an IC50 [6] of 0.24 µM and an IC50 [7] of 0.84 µM.

Work on `CC(C)Oc1cc(OC(F)(F)F)cc(C(C)(C)c2cc(Cl)cc(NC(=O)c3cc4cc(NS(C)(=O)=O)ccc4s3)c2)c1` [Example 68, N-(3-chloro-5-(2-(3-isopropoxy-5-(trifluoromethoxy)phenyl)propan-2-yl)phenyl)-5-(methylsulfonamido)benzo[b]thiophene-2-carboxamide] yielded an IC50 [2] of 0.006 µM, an IC50 [3] of 0.024 µM and an IC50 [4] of 0.011 µM. For the same molecule, the IC50 [5] was 0.019 µM, the IC50 [6] was 0.041 µM and the IC50 [7] was 0.019 µM.

With `COc1cc(OC(F)(F)F)cc(C(C)(C)c2cc(Br)cc(NC(=O)c3cc4cnc(NS(C)(=O)=O)cc4[nH]3)c2)c1` [Example 98, N-(3-bromo-5-(2-(3-methoxy-5-(trifluoromethoxy)phenyl)propan-2-yl)phenyl)-6-(methylsulfonamido)-1H-pyrrolo[3,2-c]pyridine-2-carboxamide] the IC50 [2] was 0.31 µM, the IC50 [3] was 0.86 µM and the IC50 [4] was 0.098 µM. For the same molecule, the IC50 [5] was 0.76 µM, the IC50 [6] was 0.59 µM and the IC50 [7] was 0.56 µM.

Work on `CC(C)(C)OC(=O)N1CCN(Cc2cccc(C(C)(C)c3cc(Br)cc(NC(=O)c4cc5cc(NS(C)(=O)=O)ccc5s4)c3)c2)CC1` [Example 116, tert-butyl 4-(3-(2-(3-bromo-5-(5-(methylsulfonamido)benzo[b]thiophene-2-carboxamido)phenyl)propan-2-yl)benzyl)piperazine-1-carboxylate] yielded an IC50 [2] of 0.058 µM, an IC50 [3] of 0.13 µM and an IC50 [4] of 0.053 µM. It also gave an IC50 [5] of 0.22 µM, an IC50 [6] of 0.055 µM and an IC50 [7] of 0.16 µM.
